SMILES strings stand for the structures. pEC50: −log10 of the molar value. Numbered stars: 1 amine (or outer) side, 2 acyl side, 3 side chain; on linkers, the order of the positions; unused ones are H or OH. Side chains are listed from the residue outwards. Peptide text beside a SMILES is read from it. * marks the point of attachment. C18 diacid = O=C(O)CCCCCCCCCCCCCCCCC(=O)*; γGlu = O=C(O)[C@H](CCC(=O)[*:2])N[*:1]; AEEA = NCCOCCOCC(=O)O

T1 sequence (P47871 26-477): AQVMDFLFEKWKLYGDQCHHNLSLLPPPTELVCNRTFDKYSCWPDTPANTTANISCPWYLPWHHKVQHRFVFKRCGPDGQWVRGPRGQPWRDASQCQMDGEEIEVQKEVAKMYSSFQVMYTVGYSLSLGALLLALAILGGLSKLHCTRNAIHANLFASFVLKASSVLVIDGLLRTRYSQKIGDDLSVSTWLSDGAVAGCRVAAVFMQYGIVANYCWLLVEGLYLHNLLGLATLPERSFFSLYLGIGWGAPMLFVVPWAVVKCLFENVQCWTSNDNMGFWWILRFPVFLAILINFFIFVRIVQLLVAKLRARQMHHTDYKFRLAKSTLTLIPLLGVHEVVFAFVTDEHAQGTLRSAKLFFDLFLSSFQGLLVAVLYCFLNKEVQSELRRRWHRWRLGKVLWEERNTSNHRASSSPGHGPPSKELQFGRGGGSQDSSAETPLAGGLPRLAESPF

This experiment has as its target T1, glucagon receptor (Homo sapiens, UniProt P47871).
T1 construct: expressed in transfected cells
Kind of experiment: Assay (I) Glucagon activity (cAMP biosensor, FLIPR). The class given is cell-based. The protocol: The cells (14000 per well) were incubated (37° C., 5% CO2) overnight in 384-well plates. Next day the cells were loaded with a calcium responsive dye that only distributed into the cytoplasm. Probenecid, an inhibitor of the organic anion transporter, was added to prevent the dye from leaving the cell. A PDE inhibitor was added to prevent formatted cAMP from being degraded. The plates were placed into a […] and the glucagon analogues were added. End point data were collected after 6 minutes. An increase in intracellular cAMP was proportional to an increased in calcium concentrations in the cytoplasm. When calcium was bound the dry a fluorescence signal was generated. EC50-values were calculated in Prism5.
A word on the pEC50: it is the EC50 on a negative log10 scale, so that one unit is a factor of ten. Higher therefore signals a low EC50. In turn, `CC(C)C[C@H](NC(=O)[C@H](Cc1ccc(O)cc1)NC(=O)[C@H](CCCCN)NC(=O)[C@H](CO)NC(=O)[C@H](Cc1ccc(O)cc1)NC(=O)[C@H](CC(=O)O)NC(=O)[C@H](CO)NC(=O)[C@@H](NC(=O)[C@H](Cc1ccccc1)NC(=O)[C@@H](NC(=O)CNC(=O)[C@H](Cc1c[nH]cn1)NC(=O)[C@H](CO)NC(=O)[C@@H](N)Cc1c[nH]cn1)[C@@H](C)O)[C@@H](C)O)C(=O)N[C@@H](CC(=O)O)C(=O)N[C@@H](CO)C(=O)N[C@@H](CCCNC(=N)N)C(=O)N[C@@H](CCCNC(=N)N)C(=O)N[C@@H](C)C(=O)N[C@@H](CCC(N)=O)C(=O)N[C@@H](CC(=O)O)C(=O)N[C@@H](Cc1ccccc1)C(=O)N[C@H](C(=O)N[C@@H](CCCCNC(=O)CC[C@H](NC(=O)CC[C@H](NC(=O)COCCOCCNC(=O)COCCOCCNC(=O)CC[C@H](NC(=O)CCCCCCCCCCCCCCCCC(=O)O)C(=O)O)C(=O)O)C(=O)O)C(=O)N[C@@H](Cc1c[nH]c2ccccc12)C(=O)N[C@@H](CC(C)C)C(=O)N[C@@H](CC(C)C)C(=O)N[C@@H](CO)C(=O)N[C@H](C(=O)O)[C@@H](C)O)C(C)C` [Example 2, N^ε24-[(4S)-4-carboxy-4-[[(4S)-4-carboxy-4-[[2-[2-[2-[[2-[2-[2-[[(4S)-4-carboxy-4-(17-carboxyheptadecanoylamino)butanoyl]amino]ethoxy]ethoxy]acetyl]amino]ethoxy]ethoxy]acetyl]amino]butanoyl]amino]butanoyl]-[His^3,Lys^24,Leu^27,Ser^28]-Glucagon] gave a negative-log EC50 (pEC50) of 9.89.

For `CC(C)C[C@H](NC(=O)[C@H](Cc1c[nH]c2ccccc12)NC(=O)[C@H](CCCCNC(=O)CC[C@H](NC(=O)CC[C@H](NC(=O)COCCOCCNC(=O)COCCOCCNC(=O)CC[C@H](NC(=O)CCCCCCCCCCCCCCC(=O)O)C(=O)O)C(=O)O)C(=O)O)NC(=O)[C@@H](NC(=O)[C@H](Cc1ccccc1)NC(=O)[C@H](CC(=O)O)NC(=O)[C@H](CCC(N)=O)NC(=O)[C@H](C)NC(=O)[C@H](CCCNC(=N)N)NC(=O)[C@H](CCCNC(=N)N)NC(=O)[C@@H](NC(=O)[C@H](CC(=O)O)NC(=O)[C@H](CC(C)C)NC(=O)[C@H](Cc1ccc(O)cc1)NC(=O)[C@H](CCCCN)NC(=O)[C@H](CO)NC(=O)[C@H](Cc1ccc(O)cc1)NC(=O)[C@H](CC(=O)O)NC(=O)[C@H](CO)NC(=O)[C@@H](NC(=O)[C@H](Cc1ccccc1)NC(=O)[C@@H](NC(=O)CNC(=O)[C@H](CCC(N)=O)NC(=O)[C@H](CO)NC(=O)[C@@H](N)Cc1c[nH]cn1)[C@@H](C)O)[C@@H](C)O)[C@@H](C)O)C(C)C)C(=O)N[C@@H](CC(C)C)C(=O)N[C@@H](CO)C(=O)N[C@H](C(=O)O)[C@@H](C)O` [Example 81, N^ε24-[(4S)-4-carboxy-4-[[(4S)-4-carboxy-4-[[2-[2-[2-[[2-[2-[2-[[(4S)-4-carboxy-4-(15-carboxypentadecanoylamino)butanoyl]amino]ethoxy]ethoxy]acetyl]amino]ethoxy]ethoxy]acetyl]amino]butanoyl]amino]butanoyl]-[Thr16,Lys24,Leu27,Ser28]-Glucagon], the pEC50 was 10.77.

Molecule `CC[C@H](C)[C@H](NC(=O)[C@H](CC(N)=O)NC(=O)[C@H](CC(C)C)NC(=O)[C@H](CC(C)C)NC(=O)[C@H](Cc1c[nH]c2ccccc12)NC(=O)[C@H](CCCCNC(=O)CC[C@H](NC(=O)COCCOCCNC(=O)COCCOCCNC(=O)CC[C@H](NC(=O)CCCCCCCCCCCCCCCCC(=O)O)C(=O)O)C(=O)O)NC(=O)[C@@H](NC(=O)[C@H](Cc1ccccc1)NC(=O)[C@H](CC(=O)O)NC(=O)[C@H](CCC(N)=O)NC(=O)[C@H](C)NC(=O)[C@H](CCCNC(=N)N)NC(=O)[C@H](CCCNC(=N)N)NC(=O)[C@@H](NC(=O)[C@H](CC(=O)O)NC(=O)[C@H](CC(C)C)NC(=O)[C@H](Cc1ccc(O)cc1)NC(=O)[C@H](CCCCN)NC(=O)[C@H](CO)NC(=O)[C@H](Cc1ccc(O)cc1)NC(=O)[C@H](CC(=O)O)NC(=O)[C@H](CO)NC(=O)[C@@H](NC(=O)[C@H](Cc1ccccc1)NC(=O)[C@@H](NC(=O)CNC(=O)[C@H](CCC(N)=O)NC(=O)[C@H](CO)NC(=O)[C@@H](N)Cc1c[nH]cn1)[C@@H](C)O)[C@@H](C)O)[C@@H](C)O)C(C)C)C(=O)O` [Example 35, N^ε24-[(4S)-4-carboxy-4-[[2-[2-[2-[[2-[2-[2-[[(4S)-4-carboxy-4-(17-carboxyheptadecanoylamino)butanoyl]amino]ethoxy]ethoxy]acetyl]amino]ethoxy]ethoxy]acetyl]amino]butanoyl]-[Thr16,Lys24,Leu27,Ile29]-Glucagon] had a pEC50 of 9.38.

As for `CC[C@H](C)[C@H](NC(=O)[C@H](CC(N)=O)NC(=O)[C@H](CC(C)C)NC(=O)[C@H](CC(C)C)NC(=O)[C@H](Cc1c[nH]c2ccccc12)NC(=O)[C@H](CCCCNC(=O)CC[C@H](NC(=O)COCCOCCNC(=O)COCCOCCNC(=O)CC[C@H](NC(=O)CCCCCCCCCCCCCCCCC(=O)O)C(=O)O)C(=O)O)NC(=O)[C@@H](NC(=O)[C@H](Cc1ccccc1)NC(=O)[C@H](CC(=O)O)NC(=O)[C@H](CCC(N)=O)NC(=O)[C@H](C)NC(=O)[C@H](CCCNC(=N)N)NC(=O)[C@H](CCCNC(=N)N)NC(=O)[C@H](CO)NC(=O)[C@H](CCC(=O)O)NC(=O)[C@H](CC(C)C)NC(=O)[C@H](Cc1ccc(O)cc1)NC(=O)[C@H](CCCCN)NC(=O)[C@H](CO)NC(=O)[C@H](Cc1ccc(O)cc1)NC(=O)[C@H](CC(=O)O)NC(=O)[C@H](CO)NC(=O)[C@@H](NC(=O)[C@H](Cc1ccccc1)NC(=O)[C@@H](NC(=O)CNC(=O)[C@H](CCC(N)=O)NC(=O)[C@H](CO)NC(=O)[C@@H](N)Cc1c[nH]cn1)[C@@H](C)O)[C@@H](C)O)C(C)C)C(=O)O` [Example 32, N^ε24-[(4S)-4-carboxy-4-[[2-[2-[2-[[2-[2-[2-[[(4S)-4-carboxy-4-(17-carboxyheptadecanoylamino)butanoyl]amino]ethoxy]ethoxy]acetyl]amino]ethoxy]ethoxy]acetyl]amino]butanoyl]-[Glu15,Lys24,Leu27,Ile29]-Glucagon], the negative-log EC50 (pEC50) was 8.95.

`CC[C@H](C)[C@H](NC(=O)[C@H](CC(=O)O)NC(=O)[C@H](CC(C)C)NC(=O)[C@H](Cc1ccc(O)cc1)NC(=O)[C@H](CCCCN)NC(=O)[C@H](CO)NC(=O)[C@H](Cc1ccc(O)cc1)NC(=O)[C@H](CC(=O)O)NC(=O)[C@H](CO)NC(=O)[C@@H](NC(=O)[C@H](Cc1ccccc1)NC(=O)[C@@H](NC(=O)CNC(=O)[C@H](CCC(N)=O)NC(=O)[C@H](CO)NC(=O)[C@@H](N)Cc1c[nH]cn1)[C@@H](C)O)[C@@H](C)O)C(=O)N[C@@H](CCCNC(=N)N)C(=O)N[C@@H](CCCNC(=N)N)C(=O)N[C@@H](C)C(=O)N[C@@H](CCC(N)=O)C(=O)N[C@@H](CC(=O)O)C(=O)N[C@@H](Cc1ccccc1)C(=O)N[C@H](C(=O)N[C@@H](CCCCNC(=O)CC[C@H](NC(=O)CC[C@H](NC(=O)COCCOCCNC(=O)COCCOCCNC(=O)CC[C@H](NC(=O)CCCCCCCCCCCCCCCCC(=O)O)C(=O)O)C(=O)O)C(=O)O)C(=O)N[C@@H](Cc1c[nH]c2ccccc12)C(=O)N[C@@H](CC(C)C)C(=O)N[C@@H](CC(C)C)C(=O)N[C@@H](CC(N)=O)C(=O)N[C@H](C(=O)O)[C@@H](C)O)C(C)C` [Example 8, N^ε24-[(4S)-4-carboxy-4-[[(4S)-4-carboxy-4-[[2-[2-[2-[[2-[2-[2-[[(4S)-4-carboxy-4-(17-carboxyheptadecanoylamino)butanoyl]amino]ethoxy]ethoxy]acetyl]amino]ethoxy]ethoxy]acetyl]amino]butanoyl]amino]butanoyl]-[Ile^16,Lys^24,Leu^27]-Glucagon] showed a pEC50 of 10.09.

`CC(C)C[C@H](NC(=O)[C@H](Cc1c[nH]c2ccccc12)NC(=O)[C@H](CCCCNC(=O)CC[C@H](NC(=O)CC[C@H](NC(=O)COCCOCCNC(=O)COCCOCCNC(=O)CC[C@H](NC(=O)CCCCCCCCCCCCCCCCC(=O)O)C(=O)O)C(=O)O)C(=O)O)NC(=O)[C@@H](NC(=O)[C@H](Cc1ccccc1)NC(=O)[C@H](CCC(=O)O)NC(=O)[C@H](CCC(N)=O)NC(=O)[C@H](C)NC(=O)[C@H](CCCNC(=N)N)NC(=O)[C@H](CCCNC(=N)N)NC(=O)[C@@H](NC(=O)[C@H](CC(=O)O)NC(=O)[C@H](CC(C)C)NC(=O)[C@H](Cc1ccc(O)cc1)NC(=O)[C@H](CCCCN)NC(=O)[C@H](CO)NC(=O)[C@H](Cc1ccc(O)cc1)NC(=O)[C@H](CC(=O)O)NC(=O)[C@H](CO)NC(=O)[C@@H](NC(=O)[C@H](Cc1ccccc1)NC(=O)[C@@H](NC(=O)CNC(=O)[C@H](CCC(N)=O)NC(=O)[C@H](CO)NC(=O)[C@@H](N)Cc1c[nH]cn1)[C@@H](C)O)[C@@H](C)O)[C@@H](C)O)C(C)C)C(=O)N[C@@H](CC(C)C)C(=O)N[C@@H](CO)C(=O)N[C@H](C(=O)O)[C@@H](C)O` [Example 31, N^ε24-[(4S)-4-carboxy-4-[[(4S)-4-carboxy-4-[[2-[2-[2-[[2-[2-[2-[[(4S)-4-carboxy-4-(17-carboxyheptadecanoylamino)butanoyl]amino]ethoxy]ethoxy]acetyl]amino]ethoxy]ethoxy]acetyl]amino]butanoyl]amino]butanoyl]-[Thr16,Glu21,Lys24,Leu27,Ser28]-Glucagon] (H-HSQGTFTSDYSKYLDTRRAQEFVK([γGlu-γGlu-AEEA-AEEA-γGlu-C18 diacid])WLLST-OH): the negative logarithm of the EC50 (pEC50) is 10.14.

(Values after patent publication US9486506B2 (Novo Nordisk A/S, priority 2011, dated 2016).)
